The source of these data is patent publication US8288541B2, “Piperazine amide derivatives” (Hoffmann-La Roche Inc., priority 2007, dated 2012).

The target in one data set is T1, LXR beta (Homo sapiens, UniProt P55055).
T1 construct: human LXR beta (aa 155 to 460); unnamed tag ('tagged versions'); made in house; host or cells: E. coli BL21 (pLysS)
T1 sequence (P55055 155-460): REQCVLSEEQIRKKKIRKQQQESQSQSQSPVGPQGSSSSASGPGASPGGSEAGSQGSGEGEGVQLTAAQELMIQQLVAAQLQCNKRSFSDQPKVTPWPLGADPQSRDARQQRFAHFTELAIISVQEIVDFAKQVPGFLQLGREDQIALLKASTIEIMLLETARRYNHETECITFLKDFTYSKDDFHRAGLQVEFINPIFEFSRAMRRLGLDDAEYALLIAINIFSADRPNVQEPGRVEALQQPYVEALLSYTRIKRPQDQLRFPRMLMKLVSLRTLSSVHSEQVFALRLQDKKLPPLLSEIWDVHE
Kind of data set: Radioligand binding assay (SPA), LXR beta LBD. Conditions: read-out: LXRbeta Binding IC50. The method, then:
(§1) The following tests were carried out in order to determine the activity of the compounds of the present invention. Background information on the performed assays can be found in: Nichols J S et al. “Development of a scintillation proximity assay for peroxisome proliferator-activated receptor gamma ligand binding domain”, Anal Biochem. 1998, 257: 112-119.
(§2) Mammalian expression vectors were constructed to express full-length human LXR alpha and LXR beta. Bacterial expression vectors were constructed to produce tagged versions of the ligand binding domains (LBD) of human LXR alpha (aa 164 to 447) and human LXR beta (aa 155 to 460). To accomplish this, the portions of the sequences encoding the LBDs were amplified from the full-length clones by PCR and then subcloned into the plasmid vectors. Final clones were verified by DNA sequence analysis (Willy et al., Genes Dev. 1995, 9:1033-45; Song et al., Proc Natl Acad Sci USA. 1994, 91:10809-13).
(§3) Induction, expression, and purification of LBD proteins were performed in E. coli strain BL21 (pLysS) cells by standard methods (Ref: Current Protocols in Molecular Biology, Wiley Press, edited by Ausubel et al).
(§4) Radioligand Binding Assay
(§5) LXR alpha and LXR beta receptor binding were assayed in buffer consisting of 50 mM HEPES, pH 7.4, 10 mM NaCl, 5 mM MgCl2. For each 96-well reaction, 500 ng of LXRα-LBD or 700 ng of LXR beta-LBD proteins were bound to 80 μg or 40 μg SPA beads respectively, in a final volume of 50 μl by shaking. The resulting slurry was incubated for 1 h at RT and centrifuged for 2 min at 1300×g. The supernatant containing unbound protein was removed, and the semi-dry pellet containing the receptor-coated beads was re-suspended in 50 μl of buffer. […] All binding assays were performed in 96-well plates and the amount of bound ligand was measured on a Packard TopCount using OptiPlates (Packard). Dose response curves were measured within a range of concentration from 10^−10 M to 10^−4 M.

Another data set deals with T2, LXR alpha (Homo sapiens, UniProt Q13133).
T2 construct: human LXR alpha (aa 164 to 447); unnamed tag ('tagged versions'); made in house; host or cells: E. coli BL21 (pLysS)
T2 sequence (Q13133 164-447): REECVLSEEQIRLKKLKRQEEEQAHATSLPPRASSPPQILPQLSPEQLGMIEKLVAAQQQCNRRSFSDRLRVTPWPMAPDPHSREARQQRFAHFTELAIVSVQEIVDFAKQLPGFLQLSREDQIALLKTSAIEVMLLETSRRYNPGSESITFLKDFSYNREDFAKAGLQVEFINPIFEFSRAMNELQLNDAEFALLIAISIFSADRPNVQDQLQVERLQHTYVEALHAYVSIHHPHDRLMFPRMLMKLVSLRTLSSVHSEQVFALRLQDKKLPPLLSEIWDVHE
Description: Radioligand binding assay (SPA), LXR alpha LBD. As to conditions: LXRα-LBD, read-out: LXRalpha Binding IC50. The method, then: as §1, §2, §3, §4, §5

Structures are written as SMILES.

Regarding `COc1cccc(S(=O)(=O)N2CC[C@H](c3ccccc3)[C@H](C(=O)N3CCN(c4cc(C)ccc4C)CC3)C2)c1` (relative stereo) [Example 42, Cis-[4-(2,5-Dimethyl-phenyl)-piperazin-1-yl]-[-1-(3-methoxy-benzenesulfonyl)-4-phenyl-piperidin-3-yl]-methanone], the melting point (commonly the temperature, or range, at which the solid turns liquid) was found to be 192 °C.
In the case of `Cc1ccc(Cl)cc1N1CCN(C(=O)[C@@H]2CN(S(C)(=O)=O)CC[C@@H]2c2ccc(F)cc2F)CC1` (single isomer, unassigned) [Example 87, [4-(5-Chloro-2-methyl-phenyl)-piperazin-1-yl]-[(3S,4S) or (3R,4R)-4-(2,4-difluoro-phenyl)-1-methanesulfonyl-piperidin-3-yl]-methanone], the IC50 – broadly, the concentration at which inhibition is half-maximal – on LXR beta is 2800 nM; on LXR alpha it was 15.6 µM.
For `Cc1cc(F)ccc1N1CCN(S(=O)(=O)c2cccc(Cl)c2)CC1C(=O)N1CCN(c2cc(Cl)ccc2Cl)CC1` (stereo not shown) [Example 4, [4-(3-Chloro-benzenesulfonyl)-1-(4-fluoro-2-methyl-phenyl)-piperazin-2-yl]-[4-(2,5-dichloro-phenyl)-piperazin-1-yl]-methanone] the same measures were 720 nM and 18 µM.
`COc1cccc(S(=O)(=O)N2CCN(c3ccccc3)C(C(=O)N3CCN(c4cc(C)ccc4C)CC3)C2)c1` (stereo not shown) [Example 8, [4-(2,5-Dimethyl-phenyl)-piperazin-1-yl]-[4-(3-methoxy-benzenesulfonyl)-1-phenyl-piperazin-2-yl]-methanone]: the values for the half-inhibitory concentration (IC50) on LXR beta and at LXR alpha were 770 nM and 4.1 µM, respectively.
